Experimental data published in ChEMBL document CHEMBL1201862, “PubChem BioAssay data set” (2004).
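The compound was tested at five concentrations on cells cultured in 96-well plates, with a 48-hour exposure period. Here, GI50 denotes the concentration required for 50% inhibition of growth.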 The source made the active and inactive calls. No stated cut-off is given here; in the data, active = GI50 up to about 1.1 µM and inactive = higher.

Key:
Assay in all cases: DTP human tumour cell line panel, 48 h
[1] = system: SF-539
[2] = system: DLD-1
[3] = system: OVCAR-4
[4] = system: UACC-257
[5] = system: LOX IMVI
[6] = system: SK-MEL-28
[7] = system: IGROV-1
[8] = system: SNB-19
[9] = system: A549
[10] = system: NCI-H23
[11] = system: ACHN
[12] = system: MOLT-4
[13] = system: SK-OV-3
[14] = system: RXF 393
[15] = system: DMS-114
[16] = system: HOP-92
[17] = system: HT-29
[18] = system: SK-MEL-5
[19] = system: OVCAR-3
[20] = system: KM12
[21] = system: SNB-75
[22] = system: CAKI-1
[23] = system: UACC-62
[24] = system: SR
[25] = system: NCI-H460
[26] = system: HCT-116
[27] = system: M19-MEL
[28] = system: SNB-78
[29] = system: A498
[30] = system: COLO 205
[31] = system: HL-60
[32] = system: EKVX
[33] = system: DMS-273
[34] = system: U-251
[35] = system: NCI-H522
[36] = system: HCT-15
[37] = system: KM-20L2
[38] = system: HOP-62
[39] = system: SK-MEL-2
[40] = system: XF498
[41] = system: HOP-18
[42] = system: SN12C
[43] = system: SF-268
[44] = system: 786-0
[45] = system: Malme-3M
[46] = system: M14
[47] = system: SW-620
[48] = system: OVCAR-5
[49] = system: TK-10
[50] = system: OVCAR-8
[51] = system: RXF 631
[52] = system: K562
[53] = system: HCC 2998
[54] = system: CCRF-CEM
[55] = system: SF-295
[56] = system: UO-31
[57] = system: LXFL 529
[58] = system: NCI-H226
[59] = system: RPMI-8226

COC(=O)N/N=c1\cc(C(=O)Nc2ccc(C)c(C)c2)oc2cc(O)ccc12
GI50 [1]: > 100 µM (inactive)
GI50 [2]: > 100 µM (inactive)
GI50 [3]: > 100 µM (inactive)
GI50 [4]: > 100 µM (inactive)
GI50 [5]: > 100 µM (inactive)
GI50 [6]: > 100 µM (inactive)
GI50 [7]: > 100 µM (inactive)
GI50 [8]: > 100 µM (inactive)
GI50 [9]: > 100 µM (inactive)
GI50 [10]: > 100 µM (inactive)
GI50 [11]: > 100 µM (inactive)
GI50 [12]: > 100 µM (inactive)
GI50 [13]: > 100 µM (inactive)
GI50 [14]: > 100 µM (inactive)
GI50 [15]: > 100 µM (inactive)
GI50 [16]: > 100 µM (inactive)
GI50 [17]: > 100 µM (inactive)
GI50 [18]: > 100 µM (inactive)
GI50 [19]: > 100 µM (inactive)
GI50 [20]: > 100 µM (inactive)
GI50 [21]: > 100 µM (inactive)
GI50 [22]: > 100 µM (inactive)
GI50 [23]: > 100 µM (inactive)
GI50 [24]: > 100 µM (inactive)
GI50 [25]: > 100 µM (inactive)
GI50 [26]: > 100 µM (inactive)
GI50 [27]: > 100 µM (inactive)
GI50 [28]: > 100 µM (inactive)
GI50 [29]: > 100 µM (inactive)
GI50 [30]: > 100 µM (inactive)
GI50 [31]: > 100 µM (inactive)
GI50 [32]: > 100 µM (inactive)
GI50 [33]: > 100 µM (inactive)
GI50 [34]: > 100 µM (inactive)
GI50 [35]: > 100 µM (inactive)
GI50 [36]: > 100 µM
GI50 [37]: > 100 µM (inactive)
GI50 [38]: > 100 µM (inactive)
GI50 [39]: > 100 µM (inactive)
GI50 [40]: > 100 µM (inactive)
GI50 [41]: > 100 µM (inactive)
GI50 [42]: > 100 µM (inactive)
GI50 [43]: > 100 µM (inactive)
GI50 [44]: > 100 µM (inactive)
GI50 [45]: > 100 µM (inactive)
GI50 [46]: > 100 µM (inactive)
GI50 [47]: > 100 µM (inactive)
GI50 [48]: > 100 µM (inactive)
GI50 [49]: > 100 µM (inactive)
GI50 [50]: > 100 µM (inactive)
GI50 [51]: > 100 µM (inactive)
GI50 [52]: > 100 µM (inactive)
GI50 [53]: > 100 µM (inactive)
GI50 [54]: > 100 µM (inactive)
GI50 [55]: > 100 µM (inactive)
GI50 [56]: > 100 µM (inactive)
GI50 [57]: > 100 µM (inactive)
GI50 [58]: > 100 µM (inactive)

Cc1cc2cccc(Cl)c2nc1C(=O)c1ccccc1
GI50 [1]: > 100 µM (inactive)
GI50 [2]: > 100 µM (inactive)
GI50 [3]: 86.3 µM (inactive)
GI50 [4]: 18.2 µM (inactive)
GI50 [5]: 94.4 µM (inactive)
GI50 [6]: > 100 µM (inactive)
GI50 [7]: > 100 µM (inactive)
GI50 [8]: 70.3 µM (inactive)
GI50 [9]: > 100 µM (inactive)
GI50 [10]: > 100 µM (inactive)
GI50 [11]: > 100 µM (inactive)
GI50 [59]: > 100 µM (inactive)
GI50 [14]: 26.6 µM (inactive)
GI50 [15]: > 100 µM (inactive)
GI50 [18]: > 100 µM (inactive)
GI50 [19]: > 100 µM (inactive)
GI50 [20]: > 100 µM (inactive)
GI50 [21]: 17.1 µM (inactive)
GI50 [22]: > 100 µM (inactive)
GI50 [23]: > 100 µM (inactive)
GI50 [24]: > 100 µM (inactive)
GI50 [26]: > 100 µM (inactive)
GI50 [27]: > 100 µM (inactive)
GI50 [28]: > 100 µM (inactive)
GI50 [30]: > 100 µM (inactive)
GI50 [33]: > 100 µM (inactive)
GI50 [34]: > 100 µM (inactive)
GI50 [35]: 41.2 µM (inactive)
GI50 [36]: > 100 µM
GI50 [37]: > 100 µM (inactive)
GI50 [38]: 44.1 µM (inactive)
GI50 [39]: > 100 µM (inactive)
GI50 [40]: 82 µM (inactive)
GI50 [41]: 18.7 µM (inactive)
GI50 [42]: > 100 µM (inactive)
GI50 [43]: > 100 µM (inactive)
GI50 [45]: 50.5 µM (inactive)
GI50 [46]: 76.2 µM (inactive)
GI50 [47]: > 100 µM (inactive)
GI50 [48]: > 100 µM (inactive)
GI50 [49]: > 100 µM (inactive)
GI50 [50]: 46.3 µM (inactive)
GI50 [51]: 89.3 µM (inactive)
GI50 [52]: > 100 µM (inactive)
GI50 [53]: > 100 µM (inactive)
GI50 [55]: 18.9 µM (inactive)
GI50 [56]: > 100 µM (inactive)
GI50 [57]: > 100 µM (inactive)
GI50 [58]: > 100 µM (inactive)

COc1cc(/C=C(\OC(C)=O)c2ccc3c(c2)OCO3)cc(OC)c1OC
GI50 [1]: 18 µM (inactive)
GI50 [2]: 18.6 µM (inactive)
GI50 [3]: 18.3 µM (inactive)
GI50 [4]: 18.4 µM (inactive)
GI50 [5]: 16.1 µM (inactive)
GI50 [6]: 17.7 µM (inactive)
GI50 [7]: 10.9 µM (inactive)
GI50 [8]: 28.2 µM (inactive)
GI50 [9]: 26.7 µM (inactive)
GI50 [10]: 16.4 µM (inactive)
GI50 [11]: 17.9 µM (inactive)
GI50 [12]: 13.3 µM (inactive)
GI50 [59]: 20.8 µM (inactive)
GI50 [13]: 17.5 µM (inactive)
GI50 [14]: 24.8 µM (inactive)
GI50 [15]: 13.4 µM (inactive)
GI50 [16]: 15.6 µM (inactive)
GI50 [17]: 22.3 µM (inactive)
GI50 [18]: 11.8 µM (inactive)
GI50 [19]: 18.3 µM (inactive)
GI50 [20]: 19 µM (inactive)
GI50 [21]: 20.6 µM (inactive)
GI50 [22]: 22.1 µM (inactive)
GI50 [23]: 16.6 µM (inactive)
GI50 [24]: 8.2 µM (inactive)
GI50 [25]: 33 µM (inactive)
GI50 [26]: 18.2 µM (inactive)
GI50 [27]: 14.9 µM (inactive)
GI50 [28]: 35.5 µM (inactive)
GI50 [29]: 16.1 µM (inactive)
GI50 [30]: 19.9 µM (inactive)
GI50 [31]: 27.4 µM (inactive)
GI50 [32]: 15.9 µM (inactive)
GI50 [33]: 14.8 µM (inactive)
GI50 [34]: 18.5 µM (inactive)
GI50 [35]: 13.5 µM (inactive)
GI50 [36]: 16 µM
GI50 [37]: 31.1 µM (inactive)
GI50 [38]: 20 µM (inactive)
GI50 [39]: 22.8 µM (inactive)
GI50 [40]: 14 µM (inactive)
GI50 [41]: 20.9 µM (inactive)
GI50 [42]: 20.2 µM (inactive)
GI50 [43]: 20 µM (inactive)
GI50 [44]: 29 µM (inactive)
GI50 [45]: 23 µM (inactive)
GI50 [46]: 16.3 µM (inactive)
GI50 [47]: 28.5 µM (inactive)
GI50 [48]: 24.5 µM (inactive)
GI50 [49]: 26.6 µM (inactive)
GI50 [50]: 16.3 µM (inactive)
GI50 [51]: > 10 µM (inactive)
GI50 [52]: 25.5 µM (inactive)
GI50 [53]: > 10 µM (inactive)
GI50 [54]: 25.4 µM (inactive)
GI50 [55]: 23.8 µM (inactive)
GI50 [56]: 4.15 µM (inactive)
GI50 [57]: 14.4 µM (inactive)
GI50 [58]: 11.5 µM (inactive)
